Results: publication PMC5520994 (Science signaling, 2017)
Entries after “also recorded” stand apart in the source; their conditions may differ. Like-named read-outs stand apart in the source and are kept apart here.

How the values were obtained:
IL-17A/IL-17RA binding = IL-17A/IL-17RA binding (Homo sapiens, UniProt Q96F46); test: Ligand-receptor binding inhibition assay
IL-17RA D262A mutant [1] = target: T1, IL-17RA D262A mutant (Homo sapiens, UniProt Q96F46, D293A); test: Microscale thermophoresis of IL-17A binding to IL-17RA D262A mutant; conditions: read-out: binding affinity (Kd) of IL-17RA D262A for IL-17A, MST
T1 sequence (Q96F46 33-320 D293A): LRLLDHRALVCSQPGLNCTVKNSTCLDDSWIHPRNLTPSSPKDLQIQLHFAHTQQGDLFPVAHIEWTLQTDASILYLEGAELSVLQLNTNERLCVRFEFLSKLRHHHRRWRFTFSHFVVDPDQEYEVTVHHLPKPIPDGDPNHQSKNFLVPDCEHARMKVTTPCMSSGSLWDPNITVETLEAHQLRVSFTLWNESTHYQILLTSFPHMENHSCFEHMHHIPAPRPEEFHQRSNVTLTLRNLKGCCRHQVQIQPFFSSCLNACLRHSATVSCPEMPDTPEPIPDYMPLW

[2] = target: human IL-17RA D262A mutant protein (soluble, secreted, hexahistidine-tagged) (human); test: MST
WT C57BL/6J mice = test: Adoptive transfer of MOG-specific TH17 cells to induce EAE; assay type: in vivo, mouse
IL-17E [3] = assay type: cell-based, mouse; conditions: IL-17RB–expressing MEFs, 24 hours
IL-17A [4] = test: IL-17A–stimulated cytokine and chemokine production in mouse cells; assay type: cell-based; conditions: 24 hours, ELISA
WT C57BL/6 mice [5] = test: Intradermal injection of IL-17A into ears, epidermal hyperplasia; assay type: in vivo, mouse; conditions: IL-17 plus A18 vs PBS-treated mice, RT-PCR
WT C57BL/6 mice [6] = test: Adoptive transfer of OVA-specific TH2 cells, eosinophilic airway inflammation; assay type: in vivo, mouse; conditions: RT-PCR
IL-17A [7] = test: IL-17A–mediated signaling events in HeLa cells; assay type: cell-based, human
WT BALB/cJ mice [8] = test: Intranasal injection of IL-17E, pulmonary eosinophilia; assay type: in vivo; conditions: A18 60 μg per mouse intranasally, 24 hours
IL-17RA D262A mutant [9] = target: T1, IL-17RA D262A mutant; test: Fluorescence quenching assay of A18 binding to labeled IL-17RA D262A mutant
WT C57BL/6 mice [10] = test: HDM-induced severe asthma model; assay type: in vivo; conditions: A18 120 μg per mouse i.p. days 13 and 14 plus 60 μg per mouse intranasally 1 hour before challenge
IL-17E/IL-17RB binding = target: T2, IL-17E/IL-17RB binding (Homo sapiens, UniProt Q9NRM6); test: Ligand-receptor binding inhibition assay; conditions: serial dilutions, purified proteins
T2 sequence (Q9NRM6 18-289): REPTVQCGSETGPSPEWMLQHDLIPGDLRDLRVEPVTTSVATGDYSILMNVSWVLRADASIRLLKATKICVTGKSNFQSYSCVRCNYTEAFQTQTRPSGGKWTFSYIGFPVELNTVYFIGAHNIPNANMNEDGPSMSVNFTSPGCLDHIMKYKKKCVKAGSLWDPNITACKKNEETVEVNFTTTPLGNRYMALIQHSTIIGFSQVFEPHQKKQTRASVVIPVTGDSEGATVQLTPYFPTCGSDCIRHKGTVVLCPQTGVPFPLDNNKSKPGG

WT BALB/cJ mice [11] = test: Intranasal injection of IL-17A, pulmonary neutrophilia; assay type: in vivo; conditions: A18 60 μg per mouse intranasally, 4 hours
IL-17A [12] = test: IL-17A–stimulated cytokine and chemokine production in human cells; assay type: cell-based; conditions: 24 hours, ELISA
WT C57BL/6 mice [13] = test: Adoptive transfer of OVA-specific TH17 cells, neutrophilic airway inflammation; assay type: in vivo, mouse; conditions: TH17 cell transfer, RT-PCR
IL-17E [14] = test: IL-17E–stimulated CXCL1 production / target gene expression in HT29 cells; assay type: cell-based, human; conditions: 24 hours
WT C57BL/6 mice [15] = test: TPA-induced skin hyperplasia; assay type: in vivo, mouse; conditions: dorsal skin, RT-PCR (Myc, Cxcl1, Steap4), day 7
[16] = target: IL-17RA on IL-17RA–293 cells and HeLa cells (Homo sapiens, UniProt Q96F46); test: Binding of biotinylated IL-17A to live cells, flow cytometry; assay type: cell-based; conditions: A18 10 μM
Sequence of IL-17RA on IL-17RA–293 cells and HeLa cells (Q96F46 33-866): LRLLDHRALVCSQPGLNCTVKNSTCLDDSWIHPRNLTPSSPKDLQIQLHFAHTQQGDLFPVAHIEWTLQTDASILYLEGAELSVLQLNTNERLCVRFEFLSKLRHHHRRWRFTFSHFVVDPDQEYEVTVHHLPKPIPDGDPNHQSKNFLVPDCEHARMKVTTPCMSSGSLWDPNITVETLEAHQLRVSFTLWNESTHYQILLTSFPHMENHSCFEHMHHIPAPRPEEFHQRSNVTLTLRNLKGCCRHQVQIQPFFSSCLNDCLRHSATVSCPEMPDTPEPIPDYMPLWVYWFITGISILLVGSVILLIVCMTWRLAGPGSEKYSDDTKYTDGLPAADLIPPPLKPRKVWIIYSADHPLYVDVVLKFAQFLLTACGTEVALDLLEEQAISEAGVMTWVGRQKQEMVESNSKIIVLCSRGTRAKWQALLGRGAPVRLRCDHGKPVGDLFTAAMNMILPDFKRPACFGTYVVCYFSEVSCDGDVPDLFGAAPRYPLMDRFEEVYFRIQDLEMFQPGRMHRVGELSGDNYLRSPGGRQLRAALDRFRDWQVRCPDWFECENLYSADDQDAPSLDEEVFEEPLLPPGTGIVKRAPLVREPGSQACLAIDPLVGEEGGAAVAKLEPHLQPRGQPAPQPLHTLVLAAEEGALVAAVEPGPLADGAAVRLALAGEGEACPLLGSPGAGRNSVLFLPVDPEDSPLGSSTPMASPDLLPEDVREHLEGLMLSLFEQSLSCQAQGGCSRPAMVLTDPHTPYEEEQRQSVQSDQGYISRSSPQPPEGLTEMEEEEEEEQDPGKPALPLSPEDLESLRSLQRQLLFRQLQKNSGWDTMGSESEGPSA

IL-17RA = IL-17RA (Homo sapiens, UniProt Q96F46); test: Surface plasmon resonance; assay type: binding; conditions: immobilized IL-17RA on CM5 chip
Sequence of IL-17RA (Q96F46 33-320 limits assumed): as the sequence (Q96F46 33-320 D293A) above, with A261D counted along it

IL-17A/IL-17F = test: IL-17A/IL-17F–stimulated expression of target genes in cultured cells; assay type: cell-based
IL-17RA (WT) = IL-17RA (WT) (Homo sapiens, UniProt Q96F46); test: Fluorescence quenching assay of A18 binding to labeled IL-17RA
Sequence of IL-17RA (WT) (Q96F46 33-320 limits assumed): as the sequence (Q96F46 33-320 D293A) above, with A261D counted along it

IL-17F = test: IL-17F–stimulated expression of target genes in cultured cells; assay type: cell-based
IL-17C/IL-17RE binding = target: T3, IL-17C/IL-17RE binding (Homo sapiens, UniProt Q8NFR9); test: Ligand-receptor binding inhibition assay; conditions: serial dilutions, purified proteins
T3 sequence (Q8NFR9 155-454): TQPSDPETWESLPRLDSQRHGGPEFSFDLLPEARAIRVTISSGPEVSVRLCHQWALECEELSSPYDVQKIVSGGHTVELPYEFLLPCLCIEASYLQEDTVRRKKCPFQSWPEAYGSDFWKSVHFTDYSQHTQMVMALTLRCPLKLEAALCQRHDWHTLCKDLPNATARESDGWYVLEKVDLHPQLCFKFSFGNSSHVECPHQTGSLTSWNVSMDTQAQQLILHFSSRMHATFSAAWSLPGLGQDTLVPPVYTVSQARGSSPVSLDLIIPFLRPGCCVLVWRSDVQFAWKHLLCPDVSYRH

human IL-17RB-Fc = target: T4, human IL-17RB-Fc (human, UniProt Q9NRM6 18-289); test: ELISA
T4 sequence (looked up): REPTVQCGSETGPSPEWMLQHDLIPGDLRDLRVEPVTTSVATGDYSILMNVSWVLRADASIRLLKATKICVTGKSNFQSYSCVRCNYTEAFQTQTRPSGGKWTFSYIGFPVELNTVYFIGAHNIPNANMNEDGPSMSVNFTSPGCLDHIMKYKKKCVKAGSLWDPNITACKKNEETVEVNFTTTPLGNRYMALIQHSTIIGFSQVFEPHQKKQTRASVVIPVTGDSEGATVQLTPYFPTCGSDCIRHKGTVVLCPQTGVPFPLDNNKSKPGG

human IL-17RE-Fc = target: T5, human IL-17RE-Fc (human, UniProt Q8NFR9 155-454); test: ELISA
T5 sequence (looked up): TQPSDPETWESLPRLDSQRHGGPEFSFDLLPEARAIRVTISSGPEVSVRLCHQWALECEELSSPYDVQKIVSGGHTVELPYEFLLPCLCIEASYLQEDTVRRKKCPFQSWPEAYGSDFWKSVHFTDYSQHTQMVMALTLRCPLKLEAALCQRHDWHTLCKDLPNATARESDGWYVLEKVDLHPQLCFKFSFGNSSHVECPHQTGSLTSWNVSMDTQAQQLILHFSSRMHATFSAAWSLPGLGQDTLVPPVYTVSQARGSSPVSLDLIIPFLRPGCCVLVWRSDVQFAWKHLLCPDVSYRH

[17] = TH17 cell–mediated EAE, flow cytometry

Sequence of IL-17A/IL-17RA binding (Q96F46 33-322): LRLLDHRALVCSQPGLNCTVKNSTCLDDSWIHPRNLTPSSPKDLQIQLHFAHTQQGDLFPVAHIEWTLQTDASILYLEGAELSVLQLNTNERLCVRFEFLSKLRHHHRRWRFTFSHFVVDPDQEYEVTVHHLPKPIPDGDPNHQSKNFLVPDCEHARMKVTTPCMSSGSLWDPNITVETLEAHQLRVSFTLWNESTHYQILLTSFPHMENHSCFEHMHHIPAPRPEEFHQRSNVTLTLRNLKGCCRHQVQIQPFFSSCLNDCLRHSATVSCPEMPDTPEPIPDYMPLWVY

For `Oc1cc(O)c2cc(O)c(-c3cc(O)c(O)c(O)c3)[o+]c2c1` [A10, delphinidin], the “IC50 value compared to that of A18, IL-17A/IL-17RA binding” value (IL-17A/IL-17RA binding; in words, relative to A18) was “slightly improved”.

With “IL-17A: purified recombinant human interleukin-17A, cytokine ligand of IL-17RA” the Kd (IL-17RA D262A mutant [1]) was 1.57 µM.

“purified recombinant human IL-17A (from UniProt Q16552 24-155) (ligand)” gave a Kd [2] of 1.57 µM.

Molecule `OC[C@H]1O[C@@H](Oc2cc3c(O)cc(O)cc3[o+]c2-c2ccc(O)c(O)c2)[C@H](O)[C@@H](O)[C@@H]1O` [cyanidin-3-O-glucoside] has an IC50 (IL-17A/IL-17RA binding; read-out: IC50, inhibition of IL-17A/IL-17RA binding, in vitro ligand-receptor binding inhibition assay, purified proteins) of 6.88 µM.

Molecule `Oc1ccc(-c2[o+]c3cc(O)cc(O)c3cc2O)cc1` [pelargonidin] has an IC50 (IL-17A/IL-17RA binding) of over 100 µM.

With `Oc1cc(O)c2cc(O)c(-c3ccc(O)c(O)c3)[o+]c2c1.[Cl-]` [A18, 2-(3,4-dihydroxyphenyl)-3,5,7-trihydroxy-1-benzopyrylium chloride] the “EAE disease severity (peak and remission stages) after cessation of A18” value (WT C57BL/6J mice; A18 withdrawn on day 15, compared with mice never treated with A18) was “substantially reduced”, the “numbers of CD4+CD25+Foxp3+ Treg cells in lymphoid organs or CNS” value (WT C57BL/6J mice; EAE recovery phase (day 20)) was “did not affect” and the “demyelination in the spinal cords” value (WT C57BL/6J mice; TH17 cell–mediated EAE) was “diminished demyelination”. For the same molecule, the “expression of IL-17A target genes” value (WT C57BL/6J mice; TH17 cell–mediated EAE) was “reduced expression”, the “infiltration into the brains of CD4+ T cells, CD8+ T cells or F4/80+ macrophages” value (WT C57BL/6J mice; [17]) was “no effect” and the “recruitment of Ly6G+ neutrophils into the brains” value (WT C57BL/6J mice; [17]) was “substantially reduced”. The “IL-17E–stimulated production of CXCL1 / expression of target genes” value (IL-17E [3]) was “limited inhibitory activity; also recorded: little effect”, the “IL-17A–stimulated production of CXCL1 (KC), IL-6 and CXCL2 (MIP-2)” value (IL-17A [4]) was “substantially inhibited” and the “abundances of Myc, Cxcl1 and Steap4 mRNAs in the ears” value (WT C57BL/6 mice [5]) was “not substantially increased”. For the same molecule, the “expression of genes encoding TH2 cell–type cytokines in the lungs” value (WT C57BL/6 mice [6]) was “no effect”, the “IL-17A–mediated recruitment of Act1 to IL-17RA” value (IL-17A [7]; 10 μM A18) was “decreased” and the “IL-17A–mediated phosphorylation of IκBα, JNK, p38 and ERK1/2” value (IL-17A [7]; pretreated 1 hour with 10 μM A18) was “decreased”. The “IL-17E–induced pulmonary eosinophilia” value (WT BALB/cJ mice [8]) was “did not inhibit”, the “TH2 cell–associated gene expression in lung” value (WT BALB/cJ mice [8]; IL-17E) was “did not inhibit” and the Kd (IL-17RA D262A mutant [9]) was 6.35 µM. The “HDM-induced AHR” value (WT C57BL/6 mice [10]) was “substantially reduced”, the “HDM-induced inflammatory gene expression in the lungs” value (WT C57BL/6 mice [10]) was “substantially reduced” and the HDM-induced neutrophilia (WT C57BL/6 mice [10]) was “substantially reduced”. For the same molecule, the “disruption of IL-17E/IL-17RB binding” value (IL-17E/IL-17RB binding) was “did not efficiently disrupt”, the “IL-17A–induced pulmonary neutrophilia” value (WT BALB/cJ mice [11]) was “substantially inhibited” and the “expression of IL-17A target genes (Cxcl1, Il6, Ccl11) in lung” value (WT BALB/cJ mice [11]) was “substantially inhibited”. The “IL-17A–stimulated production of CXCL1 (GROα), IL-6 and IL-8” value (IL-17A [12]) was “substantially inhibited”, the IC50 (IL-17A/IL-17RA binding) was 1.68 µM and the “inflammatory gene expression in the lungs” value (WT C57BL/6 mice [13]) was “substantially reduced”. For the same molecule, the “IL-17E–stimulated production of CXCL1 / expression of target genes” value (IL-17E [14]) was “limited inhibitory activity; also recorded: little effect”, the “TPA-induced expression of target genes” value (WT C57BL/6 mice [15]) was “substantially reduced” and the “binding of IL-17A to ectopically expressed or endogenous IL-17RA on live cells” value [16] was “inhibited”. For the same molecule, the “binding to IL-17RA by SPR” value (IL-17RA) was “confirmed the binding”, the “IL-17A/IL-17F–stimulated expression of target genes” value (IL-17A/IL-17F) was “inhibited” and the Kd (IL-17RA (WT)) was about 3 µM. For the same molecule, the “IL-17F–stimulated expression of target genes” value (IL-17F) was “inhibited” and the “disruption of IL-17C/IL-17RE binding” value (IL-17C/IL-17RE binding) was “did not efficiently disrupt”.

`Oc1cc(O)c2ccc(-c3ccc(O)c(O)c3)[o+]c2c1` [luteolinidin] was tested, and the IC50 (IL-17A/IL-17RA binding) was 6.75 µM.

B1: purified recombinant human IL-17E (IL-25) (ligand, UniProt Q9H293 33-177, looked up)
chain: YSHWPSCCPSKGQDTSEELLRWSTVPVPPLEPARPNRHPESCRASEDGPLNSRAISPWRYELDRDLNRLPQDLYHARCLCPHCVSLQTGSHMDPRGNSELLYHNQTVFYRRPCHGEKGTHKGYCLERRLYRVSLACVCVRPRVMG
B1: binds (human IL-17RB-Fc).

B2: purified recombinant human IL-17C (ligand, UniProt Q9P0M4 19-197, looked up)
chain: HHDPSLRGHPHSHGTPHCYSAEELPLGQAPPHLLARGAKWGQALPVALVSSLEAASHRGRHERPSATTQCPVLRPEEVLEADTHQRSISPWRYRVDTDEDRYPQKLAFAECLCRGCIDARTGRETAALNSVRLLQSLLVLRRRPCSRDGSGLPTPGAFAFHTEFIHVPVGCTCVLPRSV
B2: binds (human IL-17RE-Fc).
